Measurements as given in US8034940B2, “Modulators of glucocorticoid receptor, AP-1, and/or NF-κB activity and use thereof” (Bristol-Myers Squibb Company, priority 2006, dated 2011).

What was measured:
[1] = biological target: T1, human full-length glucocorticoid receptor (Homo sapiens, UniProt P04150); experiment: Glucocorticoid Receptor Binding Assay (I), fluorescence polarization, Fluormone GS Red; parameters: purified human recombinant full-length glucocorticoid receptor; purchased Invitrogen Part #2893
T1 sequence (P04150 1-777): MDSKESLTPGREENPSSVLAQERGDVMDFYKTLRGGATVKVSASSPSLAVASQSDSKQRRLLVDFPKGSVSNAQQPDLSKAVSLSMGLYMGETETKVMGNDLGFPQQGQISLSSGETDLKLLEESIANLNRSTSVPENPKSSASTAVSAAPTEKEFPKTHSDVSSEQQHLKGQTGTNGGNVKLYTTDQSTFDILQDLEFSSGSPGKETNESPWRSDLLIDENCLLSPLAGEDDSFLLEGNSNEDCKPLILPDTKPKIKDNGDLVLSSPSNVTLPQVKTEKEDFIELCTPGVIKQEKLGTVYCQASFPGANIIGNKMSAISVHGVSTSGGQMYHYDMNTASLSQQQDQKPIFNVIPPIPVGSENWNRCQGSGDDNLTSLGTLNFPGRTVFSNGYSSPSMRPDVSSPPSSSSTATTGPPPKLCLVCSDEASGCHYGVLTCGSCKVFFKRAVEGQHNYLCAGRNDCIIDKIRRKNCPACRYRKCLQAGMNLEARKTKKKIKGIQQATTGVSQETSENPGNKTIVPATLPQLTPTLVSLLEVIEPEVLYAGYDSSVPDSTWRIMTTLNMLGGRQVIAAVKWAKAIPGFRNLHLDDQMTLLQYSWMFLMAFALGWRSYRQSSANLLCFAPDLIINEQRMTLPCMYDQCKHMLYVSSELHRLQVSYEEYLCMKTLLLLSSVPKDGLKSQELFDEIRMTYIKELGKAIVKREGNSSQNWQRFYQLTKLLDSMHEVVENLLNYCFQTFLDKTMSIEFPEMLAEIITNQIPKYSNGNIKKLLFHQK
In short: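 Fluorescence polarization competition: 2 nM purified full-length recombinant receptor with 1 nM Fluormone GS Red tracer, ±test compound over 8.5E-05 to 5 μM. Incubation was 2 h at room temperature in the dark before reading FP.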

[2] = biological target: T1, human full-length glucocorticoid receptor; experiment: Glucocorticoid Receptor Binding Assay (II), fluorescence polarization, FITC-dexamethasone; parameters: recombinantly expressed human full-length glucocorticoid receptor; purchased PanVera Co., Madison P2816
Procedure: Glucocorticoid Receptor Binding Assay (II)^b
In order to measure the binding of compounds on the glucocorticoid receptor a commercially available kit was used (Glucocorticoid receptor competitor assay kit, PanVera Co., Madison, W1, P2816). Briefly, a cell lysate containing recombinantly expressed human full-length glucocorticoid receptor was mixed with a fluorescently labeled glucocorticoid (4 nM FITC-dexamethasone) plus or minus test molecule. After one hour at room temperature, the fluorescence polarization (FP) of the samples were measured. […] Test molecules were analyzed in the concentration range from 0.1 nM to 40 μM.

[3] = GR Binding Assay (I), read-out: GR (Ki, nM) (GR Binding Assay (I))
[4] = GR Binding Assay (II), read-out: GR (Ki, nM) (GR Binding Assay (II))

Row | SMILES | Ki [1] | Ki [2] | Ki [1, 3] | Ki [2, 4]
1 | Cc1cccc(-c2ccc3c(n2)Oc2ccccc2[C@@H]3C(C)(C)C(=O)Nc2nncs2)c1 [Example 179] | 64.6 nM | 37.9 nM |  | 
2 | CC(C)(C(=O)Nc1nncs1)[C@H]1c2ccccc2Oc2nc(-c3cccc4ccccc34)ccc21 [Example 177] |  |  | > 1150 nM | 460 nM
3 | CC(C)(C(=O)Nc1nncs1)[C@H]1c2ccccc2Oc2nc(-c3cccnc3)ccc21 [Example 187] |  |  | 33.1 nM | 34.4 nM
4 | CC(C)(C(=O)Nc1nncs1)[C@H]1c2ccccc2Oc2nc(-c3ccccc3)ccc21 [Example 171] | 7.15 nM |  |  | 10.2 nM
5 | CC(C)(C(=O)Nc1nncs1)[C@H]1c2ccccc2Oc2nc(-c3ccc(Cl)cc3)ccc21 [Example 178] |  |  | 10.6 nM | 4.7 nM
6 | CC(C)(C(=O)Nc1nncs1)[C@H]1c2ccccc2Oc2nc(-c3ccc(C#N)cc3)ccc21 [Example 203] |  |  | 4.61 nM | 13.1 nM
7 | CC(C)(C(=O)Nc1nncs1)[C@H]1c2ccccc2Oc2nc(-c3ccc4ccccc4c3)ccc21 [Example 186] |  |  | 386 nM | 84.6 nM
8 | CCOC(=O)c1csc(NC(=O)C(C)(C)C2c3ccccc3Oc3cc(OC)ccc32)n1 (stereo not drawn) [Example 48] |  |  |  | 60.9 nM
9 | COC(=O)c1ccc(-c2ccc3c(n2)Oc2ccccc2[C@@H]3C(C)(C)C(=O)Nc2nncs2)cc1 [Example 192] |  |  | 12.3 nM | 13.1 nM
10 | CC(C)(C(=O)Nc1nncs1)C1c2ccccc2Oc2ccccc21 [Example 39] |  |  |  | 39.7 nM
